Measured values from PMC11208742, “5,7,4′‐Trimethoxyflavone triggers cancer cell PD‐L1 ubiquitin–proteasome degradation and facilitates antitumor immunity by targeting HRD1” (MedComm, 2024).

Target: T1, HRD1 (HMG-CoA reductase degradation protein 1) (Homo sapiens, UniProt Q86TM6)
T1 construct: gene SYVN1; GFP-tagged wild-type HRD1 expressed in 293T cells, cell lysate (MST); endogenous untagged HRD1 in RKO cell lysate (CETSA)
Assay: microscale thermophoresis, GFP-HRD1
Assay type: binding

T1 sequence (Q86TM6 whole entry): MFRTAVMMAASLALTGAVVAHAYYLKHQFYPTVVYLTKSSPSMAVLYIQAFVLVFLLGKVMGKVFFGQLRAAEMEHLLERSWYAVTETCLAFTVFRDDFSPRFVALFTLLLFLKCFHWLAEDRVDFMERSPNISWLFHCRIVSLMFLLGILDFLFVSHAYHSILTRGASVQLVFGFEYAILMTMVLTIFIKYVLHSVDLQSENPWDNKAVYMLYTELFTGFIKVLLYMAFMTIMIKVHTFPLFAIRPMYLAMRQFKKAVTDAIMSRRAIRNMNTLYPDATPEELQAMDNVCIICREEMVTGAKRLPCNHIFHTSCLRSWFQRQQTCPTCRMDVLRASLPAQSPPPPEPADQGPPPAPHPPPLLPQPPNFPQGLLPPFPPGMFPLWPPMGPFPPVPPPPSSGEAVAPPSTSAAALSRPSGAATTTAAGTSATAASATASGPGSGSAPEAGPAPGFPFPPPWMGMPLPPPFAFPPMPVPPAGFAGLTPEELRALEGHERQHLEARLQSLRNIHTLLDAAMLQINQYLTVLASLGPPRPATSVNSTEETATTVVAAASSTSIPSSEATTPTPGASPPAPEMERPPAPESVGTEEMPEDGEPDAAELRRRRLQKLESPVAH

Kd: 8.02 µM
Compound: COc1ccc(-c2cc(=O)c3c(OC)cc(OC)cc3o2)cc1 [TF]
